Results as given in JP2019059697A, “置換された多環性ピリダジン誘導体およびそのプロドラッグ” (priority 2017, dated 2019).

Tested on: influenza virus [インフルエンザウイルス]
Assay: microbe, parasite or virus in culture
Format: cell-based
Conditions: unidentified influenza virus, 72 h, read-out: 50% influenza-infected cell death inhibition concentration (EC50)

SMILES	EC50
O=C1c2c(O)c(=O)cnn2N(C2c3ccccc3SCc3c2ccc(F)c3F)C2COCCN12 (single isomer, unassigned) [化合物I−1]	18.2 nM
CCN1CN(C2c3ccccc3CCc3ccccc32)n2ncc(=O)c(O)c2C1=O [化合物I−2]	207 nM
